Assay results taken from ChEMBL document CHEMBL1157088, “Gukulenins A and B, cytotoxic tetraterpenoids from the marine sponge Phorbas gukulensis” (J Nat Prod, 2010).

Assays:
Format in all cases: functional, cell-based
HCT-116 = assay: Cytotoxicity against human HCT116 cells after 24 hrs by MTT assay; details: HCT-116, 24 h
MKN-45 = assay: Cytotoxicity against human MKN45 cells after 24 hrs by MTT assay; details: MKN-45, 24 h
FaDu = assay: Cytotoxicity against human FADU cells after 24 hrs by MTT assay
SN12C = assay: Cytotoxicity against human SN12C cells after 24 hrs by MTT assay

SMILES | IC50 (HCT-116) [nM] | IC50 (MKN-45) [nM] | IC50 (FaDu) [nM] | IC50 (SN12C) [nM]
CC(=O)O[C@@H](C=O)[C@]1(C)CC[C@H](C(C)C)[C@@H]1c1cc([C@]2(O)Cc3cc(O)c(=O)c(C)c4c3[C@@H](O2)[C@H](O)[C@]2(C)CC[C@H](C(C)C)[C@H]42)cc(O)c(=O)c1C [GUKULENIN A] | 62 | 130 | 57 | 92
CC(=O)O[C@@H](CO)[C@]1(C)CC[C@H](C(C)C)[C@@H]1c1cc([C@]2(O)Cc3cc(O)c(=O)c(C)c4c3[C@@H](O2)[C@H](O)[C@]2(C)CC[C@H](C(C)C)[C@H]42)cc(O)c(=O)c1C [GUKULENIN B] | 550 | 720 | 630 | 610
